From patent publication US20260078120A1, “SUBSTITUTED PYRIDOPYRIMIDINONES” (MIRATI THERAPEUTICS, INC., priority 2022, published 2026)
Where two headings read alike, the source gives them in different places.

What was measured:
Assay type in all cases: cell-based
[1] = system: T47D (PI3Kα H1047R mutant) cells; test: CellTiter-Glo 2.0 luminescent cell viability assay, 72 hours, T47D cells
Method in brief: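 Viability was measured by CellTiter-Glo 2.0 luminescence after approximately 72 h of compound exposure at 37° C. Plating was 1000 cells per well the day before dosing, with ten 1:4 dilutions from a 10 µM top concentration. Values as percent of vehicle were fitted by variable-slope log(inhibitor) regression to give IC50.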

[2] = system: T47D (PI3Kα H1047R mutant) cells; test: Inhibition of pAKT formation, alphaLISA SureFire Ultra AKT 1/2/3 (pS473), T47D cells; settings: Homo sapiens, T47D
Experimental: The ability of a compound of Formula (I) to inhibit the formation of pAKT was measured using alphaLISA Surefire Ultra AKT 1/2/3 (pS473) Assay Kit (#ALSU-PAKT-B50K) was obtained from Perkin Elmer (Waltham, MA).
To prepare assay plates for pAKT alphaLISA assays, cells were trypsinized, resuspended in fresh media, and viable cells were counted utilizing trypan blue exclusion. Prior to seeding, cells were washed with PBS and resuspended in HBSS (Gibco, #14025092). T47D (12,000/w), SKBR3(12,000/w), or MKN1(24,000/w) cells were seeded at 12 μl per well in a solid white flat bottom 384 cell culture plate (Perkin Elmer #6007680).
Immediately after seeding, cells were dosed using an Echo Liquid Handler (Beckman Coulter) with compounds at a […] starting concentration and serially diluted (1:4) for a total of 10 concentrations. […] Cells were incubated with the compounds (solubilized in DMSO) for approximately one hour or 24 hours at 37° C. After one hour (or 24 hours) of treatment, cells were lysed with 3 μl of the 5× lysis buffer (provided and incubated at room temperature for 15 min on a microtiter plate shaker). Once cells were sufficiently lysed, 7.5 μl of the acceptor bead mix (made using the manufacturers recommended dilutions) was added to each well and left on the microtiter plate shaker for 1 min prior to incubating plates at room temperature for one hour, in the absence of light. After one hour of incubation with the acceptor bead mix, 7.5 μl of the donor bead mix (made using the manufacturers recommended dilutions) was added to each well and left on the microtiter plate shaker for 1 min prior to incubating plates at room temperature overnight in the absence of light. Plates were then imaged the following day using a CLARIOstar microplate reader (BMG Labtech, Germany).
Percent of control values were calculated by subtracting the average signal from the positive control (alpelisib) treated wells from all treated wells (including DMSO control wells) and then divided by the average signal from the vehicle DMSO treated control wells. Percent of vehicle control values were plotted as log (inhibitor) vs. response-Variable slope (four parameters) for curve fitting and IC50 values were determined using XLfit.
Key: N.D. =not determined
Inhibition of pAKT in T47D (PI3Kα H1047R mutant) cells by Exemplary Compounds of Formula (I)

[3] = system: SKBR3 (PI3Kα wild type) cells; test: CellTiter-Glo 2.0 luminescent cell viability assay, 72 hours, SKBR3 cells
Method in brief: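 Viability measured via CTG luminescence following roughly 72 hours of compound exposure at 37° C. Dosing used a 10 um starting concentration diluted 1:4 over 10 points; percent-of-vehicle data fitted with a variable-slope four-parameter model for IC50.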

[4] = Homo sapiens, T47D, 72 h, T47D (PI3Kα H1047R mutant) cells, CellTiter-Glo, approximately 72 hours, read-out: T47D (H1047R mutant) Viability IC50
[5] = T47D (PI3Kα H1047R mutant) cells, inhibition of pAKT (pS473) formation, approximately one hour or 24 hours treatment, read-out: T47D pAKT (H1047R mutant) IC50
[6] = Homo sapiens, SK-BR-3, 72 h, SKBR3 (PI3Kα wild type) cells, CellTiter-Glo, approximately 72 hours, read-out: SKBR3 (WT) Viability IC50
[7] = T47D (PI3Kα H1047R mutant) cells, CellTiter-Glo, approximately 72 hours, read-out: T47D (H1047R mutant) Viability IC50
[8] = SKBR3 (PI3Kα wild type) cells, CellTiter-Glo, approximately 72 hours, read-out: SKBR3 (WT) Viability IC50

Cc1cc([C@@H](C)Nc2ccccc2C(=O)O)c2nc(N3CC[C@@H]3CF)c(C#N)c(=O)n2c1 (single isomer, unassigned) [Example 10-53]
IC50 [1, 4]: 77.2 nM
IC50 [2, 5]: 4.35 nM
IC50 [3, 6]: > 10000 nM

Cc1cc([C@@H](C)Nc2ccccc2C(=O)O)c2nc(N3CC[C@H]3CF)c(C#N)c(=O)n2c1 (single isomer, unassigned) [Example 10-54]
IC50 [1, 4]: 72.2 nM
IC50 [2, 5]: 3.36 nM
IC50 [3, 6]: > 10000 nM

Cc1cc([C@@H](C)Nc2ccccc2C(=O)O)c2nc(N3CC[C@@H]3C)c(C#N)c(=O)n2c1 (single isomer, unassigned) [Example 10-95]
IC50 [1, 4]: 111 nM
IC50 [2, 5]: 1.38 nM
IC50 [3, 6]: > 10000 nM

Cc1cc([C@@H](C)Nc2ccccc2C(=O)O)c2nc(N3CC[C@H]3C)c(C#N)c(=O)n2c1 (single isomer, unassigned) [Example 10-96]
IC50 [1, 4]: 84.4 nM
IC50 [2, 5]: 0.905 nM
IC50 [3, 6]: > 10000 nM

Cc1cc([C@@H](C)Nc2ccccc2C(=O)O)c2nc(N3CCN(c4ccc(C#N)cc4)CC3)c(C)c(=O)n2c1 [Example 10-1, (R)-2-((1-(2-(4-(4-cyanophenyl)piperazin-1-yl)-3.7-dimethyl-4-oxo-4H-pyrido[1,2-a]pyrimidin-9-yl)ethyl)amino)benzoic acid]
IC50 [1, 4]: 38.5 nM
IC50 [2, 5]: 2.27 nM
IC50 [3, 6]: 9890 nM

Cc1cc([C@@H](C)Nc2ccc(C)nc2C(=O)O)c2nc(N3Cc4ccccc4C3)c(C#N)c(=O)n2c1 [Example 10-5, (R)-3-((1-(3-cyano-2-(isoindolin-2-yl)-7-methyl-4-oxo-4H-pyrido[1,2-a]pyrimidin-9-yl)ethyl)amino)-6-methylpicolinic acid]
IC50 [1, 4]: 13.6 nM
IC50 [2, 5]: 0.425 nM
IC50 [3, 6]: 2190 nM

CCc1cc([C@@H](C)Nc2ccccc2C(=O)O)c2nc(N3Cc4ccccc4C3)c(C#N)c(=O)n2c1 [Example 10-10, (R)-2-((1-(3-cyano-7-ethyl-2-(isoindolin-2-yl)-4-oxo-4H-pyrido[1,2-a]pyrimidin-9-yl)ethyl)amino)benzoic acid]
IC50 [1, 7]: 29.3 nM
IC50 [2, 5]: 1.21 nM
IC50 [3, 8]: 7450 nM

C[C@@H](Nc1ccccc1C(=O)O)c1cc(Cl)cn2c(=O)c(C#N)c(N3Cc4ccccc4C3)nc12 [Example 10-11, (R)-2-((1-(7-chloro-3-cyano-2-(isoindolin-2-yl)-4-oxo-4H-pyrido[1,2-a]pyrimidin-9-yl)ethyl)amino)benzoic acid]
IC50 [1, 4]: 30.5 nM
IC50 [2, 5]: 1.71 nM
IC50 [3, 6]: 7770 nM

Cc1cc([C@@H](C)Nc2ccccc2C(=O)O)c2nc(N3CCC(F)(F)CC3)c(Br)c(=O)n2c1 [Example 10-12, (R)-2-((1-(3-bromo-2-(4,4-difluoropiperidin-1-yl)-7-methyl-4-oxo-4H-pyrido[1,2-a]pyrimidin-9-yl)ethyl)amino)benzoic acid]
IC50 [1, 4]: 31 nM
IC50 [2, 5]: 0.639 nM
IC50 [3, 6]: > 10000 nM

Cc1cc([C@@H](C)Nc2ccccc2C(=O)O)c2nc(N3CCN(c4cn(C)nc4C(F)(F)F)CC3)c(C)c(=O)n2c1 [Example 10-13, (R)-2-((1-(3,7-dimethyl-2-(4-(1-methyl-3-(trifluoromethyl)-1H-pyrazol-4-yl)piperazin-1-yl)-4-oxo-4H-pyrido[1,2-a]pyrimidin-9-yl)ethyl)amino)benzoic acid]
IC50 [1, 4]: 32.8 nM
IC50 [2, 5]: 1 nM
IC50 [3, 6]: 5890 nM

Cc1cc([C@@H](C)Nc2ccc(Cl)nc2C(=O)O)c2nc(N3Cc4ccccc4C3)c(C#N)c(=O)n2c1 [Example 10-14, (R)-6-chloro-3-((1-(3-cyano-2-(isoindolin-2-yl)-7-methyl-4-oxo-4H-pyrido[1,2-a]pyrimidin-9-yl)ethyl)amino)picolinic acid]
IC50 [1, 4]: 33.1 nM
IC50 [2, 5]: 2.34 nM
IC50 [3, 6]: 8790 nM

Cc1cc([C@@H](C)Nc2ccccc2C(=O)O)c2nc(NCC3CC3)c(C#N)c(=O)n2c1 [Example 10-15, (R)-2-((1-(3-cyano-2-((cyclopropylmethyl)amino)-7-methyl-4-oxo-4H-pyrido[1,2-a]pyrimidin-9-yl)ethyl)amino)benzoic acid]
IC50 [1, 4]: 36.4 nM
IC50 [2, 5]: 0.853 nM
IC50 [3, 6]: > 10000 nM

Cc1cc([C@@H](C)Nc2ccccc2C(=O)O)c2nc(N3CCCC(F)(F)C3)c(C)c(=O)n2c1 [Example 10-18, (R)-2-((1-(2-(3,3-difluoropiperidin-1-yl)-3,7-dimethyl-4-oxo-4H-pyrido[1,2-a]pyrimidin-9-yl)ethyl)amino)benzoic acid]
IC50 [1, 4]: 38.4 nM
IC50 [2, 5]: 2.01 nM
IC50 [3, 6]: > 10000 nM

Cc1cc([C@@H](C)Nc2ccccc2C(=O)O)c2nc(N3CCN(c4ccc(C#N)c5cnccc45)CC3)c(C)c(=O)n2c1 [Example 10-19, (R)-2-((1-(2-(4-(8-cyanoisoquinolin-5-yl)piperazin-1-yl)-3,7-dimethyl-4-oxo-4H-pyrido[1,2-a]pyrimidin-9-yl)ethyl)amino)benzoic acid]
IC50 ([1]; Homo sapiens, T47D, 72 h, read-out: T47D (H1047R mutant) Viability IC50 (nM)): 41.4 nM
IC50 ([2]; read-out: T47D pAKT (H1047R mutant) IC50 (nM)): 0.244 nM
IC50 ([3]; Homo sapiens, SK-BR-3, 72 h, read-out: SKBR3 (WT) Viability IC50 (nM)): 7640 nM

Cc1cc([C@@H](C)Nc2ccccc2C(=O)O)c2nc(N3CCN(c4ccc(C#N)cc4)CC3C)c(C)c(=O)n2c1 (stereo partly drawn) [Example 10-20, 2-(((1R)-1-(2-(4-(4-cyanophenyl)-2-methylpiperazin-1-yl)-3,7-dimethyl-4-oxo-4H-pyrido[1,2-a]pyrimidin-9-yl)ethyl)amino)benzoic acid]
IC50 [1, 7]: 42.7 nM
IC50 [2, 5]: 1.6 nM
IC50 [3, 8]: 7450 nM

Cc1cc([C@@H](C)Nc2ccccc2C(=O)O)c2nc(N3CCN(c4ccc(C#N)cc4)[C@@H](C)C3)c(C)c(=O)n2c1 [Example 10-21, 2-(((R)-1-(2-((S)-4-(4-cyanophenyl)-3-methylpiperazin-1-yl)-3,7-dimethyl-4-oxo-4H-pyrido[1,2-a]pyrimidin-9-yl)ethyl)amino)benzoic acid]
IC50 [1, 4]: 45.8 nM
IC50 [2, 5]: 2.34 nM
IC50 [3, 6]: 8070 nM

Cc1cc([C@@H](C)Nc2ccccc2C(=O)O)c2nc(N3CCN(c4ccc(C#N)cc4)C[C@H]3C)c(C)c(=O)n2c1 [Example 10-22, 2-(((R)-1-(2-((R)-4-(4-cyanophenyl)-2-methylpiperazin-1-yl)-3,7-dimethyl-4-oxo-4H-pyrido[1,2-a]pyrimidin-9-yl)ethyl)amino)benzoic acid]
IC50 [1, 4]: 48 nM
IC50 [2, 5]: 3.85 nM
IC50 [3, 6]: 5540 nM

Cc1cc([C@@H](C)Nc2ccccc2C(=O)O)c2nc(N3CCN(c4ccc(C#N)cc4)[C@H](C)C3)c(C)c(=O)n2c1 [Example 10-24, 2-(((R)-1-(2-((R)-4-(4-cyanophenyl)-3-methylpiperazin-1-yl)-3,7-dimethyl-4-oxo-4H-pyrido[1,2-a]pyrimidin-9-yl)ethyl)amino)benzoic acid]
IC50 [1, 4]: 48.6 nM
IC50 [2, 5]: 5.49 nM
IC50 [3, 6]: > 10000 nM

C[C@@H](Nc1ccccc1C(=O)O)c1cc(F)cn2c(=O)c(C#N)c(N3CCC(F)(F)CC3)nc12 [Example 10-25, (R)-2-((1-(3-cyano-2-(4,4-difluoropiperidin-1-yl)-7-fluoro-4-oxo-4H-pyrido[1,2-a]pyrimidin-9-yl)ethyl)amino)benzoic acid]
IC50 [1, 4]: 49.6 nM
IC50 [2, 5]: 4.69 nM
IC50 [3, 6]: > 10000 nM

Cc1cc([C@@H](C)Nc2ccc(F)nc2C(=O)O)c2nc(N3Cc4ccccc4C3)c(C)c(=O)n2c1 [Example 10-29, (R)-6-fluoro-3-((1-(2-(isoindolin-2-yl)-3,7-dimethyl-4-oxo-4H-pyrido[1,2-a]pyrimidin-9-yl)ethyl)amino)picolinic acid]
IC50 [1, 7]: 53.9 nM
IC50 [2, 5]: 0.54 nM
IC50 [3, 8]: > 10000 nM
